# Measured values published in ChEMBL document CHEMBL1121451, “Neuroleptic activity in 5-aryltetrahydro-gamma-carbolines” (J Med Chem, 1980).
# What was measured:
# Canis familiaris [1] = assay: The ability of compound to prevent the emesis induced by apomorphine (0.1 mg/kg, iv) in dogs at the specified dosage of 3.2 mg/kg (sesame oil); format: functional, Canis lupus familiaris
# Rattus norvegicus [2] = species on record: Rattus norvegicus; assay: Inhibition of amphetamine induced stereotypy in rats; pretreated 1 hr before amphetamine.; format: functional
# Rattus norvegicus [3] = assay: Tested for neuroleptic activity by measuring antagonism of d-amphetamine sulfate at intraperitoneal dosage of 5 mg/kg, after 5 hours in rat; format: functional; settings: ip
# Rattus norvegicus [4] = assay: Tested for neuroleptic activity by measuring antagonism of d-amphetamine sulfate at intraperitoneal dosage of 5 mg/kg, after 24 hours in rat; Range is 1.0-32; format: functional; settings: ip
# Rattus norvegicus [5] = assay: Tested for neuroleptic activity by measuring antagonism of d-amphetamine sulfate at intraperitoneal dosage of 5 mg/kg, after 1 hour in rat; Range is 32-56; format: functional; settings: ip
# Rattus norvegicus [6] = assay: Tested for neuroleptic activity by measuring antagonism of d-amphetamine sulfate at intraperitoneal dosage of 5 mg/kg, after 1 hour in rat; Range is 10-32; format: functional; settings: ip
# Rattus norvegicus [7] = assay: Tested for neuroleptic activity by measuring antagonism of d-amphetamine sulfate at intraperitoneal dosage of 5 mg/kg, after 5 hours in rat; Range is 10-32; format: functional; settings: ip
# Rattus norvegicus [8] = assay: Tested for neuroleptic activity by measuring antagonism of d-amphetamine sulfate at intraperitoneal dosage of 5 mg/kg, after 24 hours in rat; format: functional; settings: ip
# Rattus norvegicus [9] = assay: Tested for neuroleptic activity by measuring antagonism of d-amphetamine sulfate at intraperitoneal dosage of 5 mg/kg, after 1 hour in rat; Range is 1.0-3.2; format: functional; settings: ip
# Rattus norvegicus [10] = assay: Tested for neuroleptic activity by measuring antagonism of d-amphetamine sulfate at intraperitoneal dosage of 5 mg/kg, after 5 hours in rat; Range is 3.2-10; format: functional; settings: ip
# Canis familiaris [11] = assay: The ability of compound to prevent the emesis induced by apomorphine (0.1 mg/kg, iv) in dogs at the specified dosage of 2.0 mg/kg (1 N saline); Range is 1-2; format: functional, Canis lupus familiaris
# Rattus norvegicus [12] = assay: Tested for neuroleptic activity by measuring antagonism of d-amphetamine sulfate at intraperitoneal dosage of 5 mg/kg, after 1 hour in rat; Range is 0.32-1.0; format: functional; settings: ip
# Rattus norvegicus [13] = assay: Tested for neuroleptic activity by measuring antagonism of d-amphetamine sulfate at intraperitoneal dosage of 5 mg/kg, after 5 hours in rat; Range is 0.32-1.0; format: functional; settings: ip
# Rattus norvegicus [14] = assay: Tested for neuroleptic activity by measuring antagonism of d-amphetamine sulfate at intraperitoneal dosage of 5 mg/kg, after 24 hours in rat; Range is 3.2-10; format: functional; settings: ip
# Rattus norvegicus [15] = assay: Tested for neuroleptic activity by measuring antagonism of d-amphetamine sulfate at intraperitoneal dosage of 5 mg/kg, after 5 hours in rat; Range is 1.0-3.2; format: functional; settings: ip
# Rattus norvegicus [16] = assay: Tested for neuroleptic activity by measuring antagonism of d-amphetamine sulfate at intraperitoneal dosage of 5 mg/kg, after 1 hour in rat; Range is 3.2-10; format: functional; settings: ip
# Rattus norvegicus [17] = species on record: Rattus norvegicus; assay: animal or person; settings: ip, 1 h
# Description: tested for neuroleptic activity by measuring antagonism of d-amphetamine sulfate at intraperitoneal dosage of 5 mg/kg, after 1 hour in rat
# Rattus norvegicus [18] = species on record: Rattus norvegicus; assay: animal or person; settings: ip, 24 h
# Description: tested for neuroleptic activity by measuring antagonism of d-amphetamine sulfate at intraperitoneal dosage of 5 mg/kg, after 24 hours in rat
# Rattus norvegicus [19] = species on record: Rattus norvegicus; assay: animal or person; settings: ip, 5 h
# Description: tested for neuroleptic activity by measuring antagonism of d-amphetamine sulfate at intraperitoneal dosage of 5 mg/kg, after 5 hours in rat
# Rattus norvegicus [20] = assay: Tested for neuroleptic activity by measuring antagonism of d-amphetamine sulfate at intraperitoneal dosage of 5 mg/kg, after 24 hours in rat; Range is 1.0-3.2; format: functional; settings: ip
# Rattus norvegicus [21] = assay: Tested for neuroleptic activity by measuring antagonism of d-amphetamine sulfate at intraperitoneal dosage of 5 mg/kg, after 1 hour in rat; Range is 0.1-0.32; format: functional; settings: ip
# Canis familiaris [22] = assay: The ability of compound to prevent the emesis induced by apomorphine (0.1 mg/kg, iv) in dogs at the specified dosage of 2.0 mg/kg (1 N saline); format: functional, Canis lupus familiaris
# Canis familiaris [23] = assay: The ability of compound to prevent the emesis induced by apomorphine (0.1 mg/kg, iv) in dogs at the specified dosage of 3.2 mg/kg (sesame oil); Range is 8-9; format: functional, Canis lupus familiaris
# Rattus norvegicus [24] = assay: Tested for neuroleptic activity by measuring antagonism of d-amphetamine sulfate at intraperitoneal dosage of 5 mg/kg, after 24 hours in rat; Range is 10-32; format: functional; settings: ip
# Rattus norvegicus [25] = assay: Tested for neuroleptic activity by measuring antagonism of d-amphetamine sulfate at intraperitoneal dosage of 5 mg/kg, after 5 hours in rat; Range is 0.1-0.32; format: functional; settings: ip
# Rattus norvegicus [26] = assay: Tested for neuroleptic activity by measuring antagonism of d-amphetamine sulfate at intraperitoneal dosage of 5 mg/kg, after 24 hours in rat; Range is 0.32-1.0; format: functional; settings: ip
structure (smiles),measurement,setting,value
CCCCCCCCCCCCCCCCCC(=O)OC(CCCN1CCc2c(c3cc(F)ccc3n2-c2ccc(F)cc2)C1)c1ccc(F)cc1 (configuration not stated),Protection,Canis familiaris [1],0 days
OC(CCCN1CCc2c(c3cc(F)ccc3n2-c2ccc(Cl)cc2)C1)c1ccc(F)cc1 (configuration not stated),ED50,Rattus norvegicus [2],> 32 mg/kg
same,ED50,Rattus norvegicus [3],> 32 mg/kg
same,ED50,Rattus norvegicus [4],1 mg/kg
CN1CCc2[nH]c3ccc(Cl)cc3c2C1,ED50,Rattus norvegicus [5],32 mg/kg
Cn1c2c(c3cc(F)ccc31)CN(CCCC(O)c1ccc(F)cc1)CC2 (configuration not stated),ED50,Rattus norvegicus [6],10 mg/kg
same,ED50,Rattus norvegicus [7],10 mg/kg
same,ED50,Rattus norvegicus [8],> 32 mg/kg
CC(=O)OC(CCCN1CCc2c(c3cc(F)ccc3n2-c2ccc(F)cc2)C1)c1ccc(F)cc1 (configuration not stated),Protection,Canis familiaris [1],0 days
O=C(CCCN1CCc2[nH]c3ccc(F)cc3c2C1)c1ccc(F)cc1,ED50,Rattus norvegicus [9],1 mg/kg
same,ED50,Rattus norvegicus [8],> 32 mg/kg
same,ED50,Rattus norvegicus [10],3.2 mg/kg
CCCCCCC(=O)OC(CCCN1CCc2c(c3cc(F)ccc3n2-c2ccc(F)cc2)C1)c1ccc(F)cc1.Cl (configuration not stated),Protection,Canis familiaris [11],1 days
CN1CCc2c(c3cc(Cl)ccc3n2-c2ccc(F)cc2)C1.Cl,ED50,Rattus norvegicus [9],1 mg/kg
same,ED50,Rattus norvegicus [8],> 10 mg/kg
same,ED50,Rattus norvegicus [10],3.2 mg/kg
CN1CCc2c(c3cc(Cl)ccc3n2C)C1.Cl,ED50,Rattus norvegicus [5],32 mg/kg
Cl.Fc1ccc(CCCCN2CCc3c(c4cc(F)ccc4n3-c3ccc(F)cc3)C2)cc1,ED50,Rattus norvegicus [12],0.32 mg/kg
same,ED50,Rattus norvegicus [13],0.32 mg/kg
same,ED50,Rattus norvegicus [14],3.2 mg/kg
Cl.Fc1ccc(/C=C/CCN2CCc3c(c4cc(F)ccc4n3-c3ccc(F)cc3)C2)cc1,ED50,Rattus norvegicus [15],1 mg/kg
same,ED50,Rattus norvegicus [16],3.2 mg/kg
same,ED50,Rattus norvegicus [8],> 3.2 mg/kg
Cl.O=C(CCN1CCc2c(c3cc(F)ccc3n2-c2ccc(F)cc2)C1)c1ccc(F)cc1,ED50,Rattus norvegicus [17],> 32 mg/kg
same,ED50,Rattus norvegicus [18],> 32 mg/kg
same,ED50,Rattus norvegicus [19],> 32 mg/kg
Cl.O=C(CCCN1CCc2c(c3cc(F)ccc3n2-c2ccc(F)cc2)C1)c1ccc(F)cc1,ED50,Rattus norvegicus [9],1 mg/kg
same,ED50,Rattus norvegicus [15],1 mg/kg
same,ED50,Rattus norvegicus [20],1 mg/kg
Cl.O=C(CCCN1CCc2c(c3cc(F)ccc3n2-c2ccc(F)cc2)C1)c1ccccc1,ED50,Rattus norvegicus [6],10 mg/kg
same,ED50,Rattus norvegicus [7],10 mg/kg
Cl.O=C(CCCN1CCc2c(c3cc(F)ccc3n2-c2ccc(F)cc2)C1)c1ccc(Cl)cc1,ED50,Rattus norvegicus [16],3.2 mg/kg
same,ED50,Rattus norvegicus [10],3.2 mg/kg
Cl.OC(CCCN1CCc2c(c3cc(F)ccc3n2-c2ccc(F)cc2)C1)c1ccccc1F (configuration not stated),ED50,Rattus norvegicus [21],0.1 mg/kg
same,ED50,Rattus norvegicus [15],1 mg/kg
same,ED50,Rattus norvegicus [8],> 3.2 mg/kg
Cl.O=C(CCCN1CCc2c(c3cc(F)ccc3n2-c2ccc(F)cc2)C1)c1cccc(F)c1,ED50,Rattus norvegicus [6],10 mg/kg
same,ED50,Rattus norvegicus [7],10 mg/kg
same,ED50,Rattus norvegicus [8],> 32 mg/kg
Cl.OC(CCCCN1CCc2c(c3cc(F)ccc3n2-c2ccc(F)cc2)C1)c1ccc(F)cc1 (configuration not stated),ED50,Rattus norvegicus [9],1 mg/kg
same,ED50,Rattus norvegicus [15],1 mg/kg
same,ED50,Rattus norvegicus [8],> 3.2 mg/kg
CCCCCCCCCC(=O)OC(CCCN1CCc2c(c3cc(F)ccc3n2-c2ccc(F)cc2)C1)c1ccc(F)cc1.Cl (configuration not stated),Protection,Canis familiaris [22],0 days
Cl.OC(CCCN1CCc2c(c3cc(F)ccc3n2-c2ccc(C(F)(F)F)cc2)C1)c1ccc(F)cc1 (configuration not stated),ED50,Rattus norvegicus [6],10 mg/kg
same,ED50,Rattus norvegicus [7],10 mg/kg
CN1CCc2c(c3cc(Cl)ccc3n2-c2ccccc2)C1.Cl,ED50,Rattus norvegicus [7],10 mg/kg
same,ED50,Rattus norvegicus [16],3.2 mg/kg
same,ED50,Rattus norvegicus [8],> 32 mg/kg
COc1ccc(C(O)CCCN2CCc3c(c4cc(F)ccc4n3-c3ccc(F)cc3)C2)cc1.Cl (configuration not stated),ED50,Rattus norvegicus [9],1 mg/kg
same,ED50,Rattus norvegicus [15],1 mg/kg
same,ED50,Rattus norvegicus [8],> 3.2 mg/kg
Cl.OC(CCCN1CCc2c(c3cc(F)ccc3n2-c2ccccc2)C1)c1ccc(F)cc1 (configuration not stated),ED50,Rattus norvegicus [9],1 mg/kg
same,ED50,Rattus norvegicus [15],1 mg/kg
same,ED50,Rattus norvegicus [14],3.2 mg/kg
CCCCC(=O)OC(CCCN1CCc2c(c3cc(F)ccc3n2-c2ccc(F)cc2)C1)c1ccc(F)cc1.Cl (configuration not stated),Protection,Canis familiaris [23],8 days
CN1CCc2c(c3cc(F)ccc3n2-c2ccc(F)cc2)C1.Cl,ED50,Rattus norvegicus [9],1 mg/kg
same,ED50,Rattus norvegicus [8],> 10 mg/kg
same,ED50,Rattus norvegicus [10],3.2 mg/kg
CN1CCc2c(c3cc(F)ccc3n2-c2ccccc2)C1.Cl,ED50,Rattus norvegicus [7],10 mg/kg
same,ED50,Rattus norvegicus [16],3.2 mg/kg
same,ED50,Rattus norvegicus [8],> 32 mg/kg
Cl.OC(CCCN1CCc2c(c3cc(F)ccc3n2-c2ccc(F)cc2)C1)c1ccccc1 (configuration not stated),ED50,Rattus norvegicus [12],0.32 mg/kg
same,ED50,Rattus norvegicus [13],0.32 mg/kg
same,ED50,Rattus norvegicus [8],> 3.2 mg/kg
Cc1ccc(C(O)CCCN2CCc3c(c4cc(F)ccc4n3-c3ccc(F)cc3)C2)cc1.Cl (configuration not stated),ED50,Rattus norvegicus [21],0.1 mg/kg
same,ED50,Rattus norvegicus [15],1 mg/kg
same,ED50,Rattus norvegicus [8],> 10 mg/kg
Cl.OC(CCCN1CCc2c(c3cc(F)ccc3n2-c2ccccc2F)C1)c1ccc(F)cc1 (configuration not stated),ED50,Rattus norvegicus [12],0.32 mg/kg
same,ED50,Rattus norvegicus [15],1 mg/kg
same,ED50,Rattus norvegicus [8],> 10 mg/kg
Cl.OC(CCCN1CCc2c(c3cc(F)ccc3n2-c2ccc(F)cc2)C1)c1ccc(Cl)cc1 (configuration not stated),ED50,Rattus norvegicus [9],1 mg/kg
same,ED50,Rattus norvegicus [15],1 mg/kg
same,ED50,Rattus norvegicus [8],> 3.2 mg/kg
Cl.OC(CCCN1CCc2c(c3cc(F)ccc3n2-c2ccc(F)cc2)C1)c1cccc(F)c1 (configuration not stated),ED50,Rattus norvegicus [12],0.32 mg/kg
same,ED50,Rattus norvegicus [15],1 mg/kg
same,ED50,Rattus norvegicus [24],10 mg/kg
OC(CCCN1CCc2c(c3cc(F)ccc3n2-c2ccc(F)cc2)C1)c1ccc(F)cc1 (configuration not stated) [FLUTROLINE],ED50,Rattus norvegicus [21],0.1 mg/kg
same,ED50,Rattus norvegicus [25],0.1 mg/kg
same,ED50,Rattus norvegicus [26],0.32 mg/kg
CN1CCN(CC/C=C2/c3ccccc3Sc3ccc(S(=O)(=O)N(C)C)cc32)CC1 [THIOTHIXENE],ED50,Rattus norvegicus [12],0.32 mg/kg
same,ED50,Rattus norvegicus [13],0.32 mg/kg
same,ED50,Rattus norvegicus [8],> 17.8 mg/kg
